How the values were obtained:
Experiment in all cases: growth (OD600 after 24 h); higher = more growth
∆mdtK = tested on: ∆mdtK
Experimental: (§1)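 E. coli BW25113 ΔaraC (Efflux+) or efflux-pump deletion strains (ΔtolC ΔentC, ΔemrE, ΔmdtI, ΔyeeO, ΔmdtK, ΔmdtM) diluted 1:100 in M9-based medium with a drug dilution series. Growth is read as OD600 after 24 h; 3 biological replicates.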

∆yeeO = tested on: ∆yeeO
Experimental: as §1

Efflux+ = tested on: Efflux+
Experimental: as §1

∆mdtM = tested on: ∆mdtM
Experimental: as §1

∆emrE = tested on: ∆emrE
Experimental: as §1

∆tolC ∆entC = tested on: ∆tolC ∆entC
Experimental: as §1

∆mdtI = tested on: ∆mdtI
Experimental: as §1

CN(Cc1cc(Br)cc(Br)c1N)C1CCCCC1 [Bromhexine]
growth
Settings | Efflux+ | ∆emrE | ∆mdtI | ∆mdtK | ∆mdtM | ∆tolC ∆entC | ∆yeeO
drug 3 µM | 1.027 | 0.992 | 1.04 | 0.772 | 0.825 | 0.894 | 0.897
drug 6.25 µM | 0.989 | 1.08 | 1.01 | 0.792 | 0.819 | 0.989 | 0.881
drug 12.5 µM | 0.974 | 1.06 | 0.992 | 0.762 | 0.805 | 0.94 | 0.881
drug 25 µM | 0.9831 | 1.02 | 0.996 | 0.737 | 0.8363 | 0.564 | 0.8876
drug 50 µM | 1 | 1.02 | 0.994 | 0.743 | 0.8474 | 0.05317 | 0.905
drug 100 µM | 0.998 | 1.04 | 0.9907 | 0.7706 | 0.8478 | 0.0597 | 0.917

CC/C(=C(/CC)c1ccc(O)cc1)c1ccc(O)cc1 [Diethylstilbestrol]
growth
Settings | Efflux+ | ∆emrE | ∆mdtI | ∆mdtK | ∆mdtM | ∆tolC ∆entC | ∆yeeO
drug 0.5 µM | 0.872 | 0.993 | 0.863 | 0.717 | 0.7859 | 0.995 | 0.983
drug 1.25 µM | 1.04 | 0.978 | 0.979 | 0.754 | 0.8345 | 1.04 | 0.991
drug 2.5 µM | 1.03 | 0.977 | 0.976 | 0.881 | 0.903 | 1.03 | 1.01
drug 5 µM | 1.07 | 1.01 | 0.9841 | 0.786 | 0.956 | 0.761 | 1
drug 10 µM | 1.056 | 1.06 | 1.02 | 0.84 | 0.9842 | 0.0999 | 1.04
drug 20 µM | 1.06 | 1.08 | 0.948 | 0.713 | 1.05 | 0.0484 | 1.07

From the supplement of paper PMC9262897, “Low-cost anti-mycobacterial drug discovery using engineered E. coli” (Nature Communications, 2022)
